Source: paper PMC3735939, “The low levels of eicosapentaenoic acid in rat brain phospholipids are maintained via multiple redundant mechanisms” (Journal of Lipid Research, 2013)

Key:
Assay type in all cases: in vivo, rat
[1] = Brain unesterified FA concentrations (GC-MS; EPA by LC-MS/MS) in vehicle- or MEP-treated rats; conditions: MEP vs vehicle
Description: At 15 weeks of age, 16 rats were randomized to receive vehicle or 10 mg/kg MEP via tail vein catheter as described above. […] Brain hemispheres were homogenized in ethanol to yield a concentration of 100 mg tissue/ml. The unesterified FAs from 100 mg of brain tissue were isolated. The unesterified FA bands were collected and extracted twice from silica by hexane:isopropanol (3:2 by volume) with 5.5% water. […] The mixtures were shaken for 15 min and dried down with nitrogen gas. FA-PFB esters (FAPEs) were reconstituted in 100 μl hexane for GC-MS analysis as described below. For measurements of unesterified EPA, brain samples were homogenized in ethanol on ice. An aliquot of 100 mg tissue was spiked with ARA-d8 (20 ng; Cayman Chemical, Ann Arbor, MI) and dried under nitrogen gas in reduced light conditions. Residues were dissolved in ethanol, acidified to pH 4 with 1 N HCl, and extracted three times with ethyl acetate. After washing to neutrality with water, the ethyl acetate fraction was dried under nitrogen and transferred to siliconized minivials for liquid chromatography-tandem mass spectrometry (LC-MS/MS) analysis as described below. Brain unesterified EPA was detected using an Agilent HPLC 1200 equipped with a Zorbax SB-Phenyl column. HPLC solvent contained 4 μl/l propionic acid. The initial conditions of elution were set at 400 μl/min gradient system consisting of (A) water and (B) acetonitrile. […] Mass spectrometry analyses were carried out on API5500 triple quadruple mass spectrometer (AB SCIEX, Concord, ON, Canada). The QTRAP analyses were conducted in electrospray ionization negative ion mode. The turbospray temperature was set to 500°C and the ion spray voltage to 4,500 V. The collision energy, declustering potential, and collision cell exit potential were optimized and were set to 15, 50, and 11, respectively. Concentration was quantified by comparing the deuterium-to-protium ratio of brain unesterified EPA with standard lines generated from authentic standards. Authentic standards in appropriate dilutions (0.002-2 ng) were prepared and analyzed simultaneously with brain samples. The lower limit of quantification (LLQ) was 0.002 ng (6.3 fmol of […] identified with an Agilent 7890A gas chromatograph (Agilent Technologies) equipped with a SP-2380 (Supelco) fused silica column (Agilent Technologies; 30 m × 0.25 mm I.D. × 0.2 μm film thickness) and an Agilent 5975C quadruple mass spectrometry detector (Agilent Technologies). The sample was injected in split mode (10:1). The injection port temperature was set to 240°C and the ionization mode was set to negative chemical ionization using methane. FAPEs were eluted using a temperature program initially set at 150°C for 1 min, increase at 12°C/min to 270°C, and then at 40°C/min to 275°C for 3 min. […]

[2] = test system: mitochondrial FA β-oxidation; assay: Radioactivity in brain aqueous fraction (marker of β-oxidation) after 5 min intravenous 14C-tracer infusion; conditions: MEP 10 mg/kg iv 10 min before infusion
[3] = Radioactivity in brain lipid fractions after 5 min intravenous 14C-tracer infusion (TLC, LSC); conditions: MEP vs vehicle
Description: Twenty-four hours postsurgery, a second catheter (iv catheter 24 gauge/0.75 inch, Angiocath™; Becton Dickinson) was implanted into the tail vein where rats received either vehicle or 10 mg/kg of MEP. Ten minutes post injection of vehicle or MEP, the tail vein catheter was connected to a syringe containing radiolabeled ^14C-palmitate (n = 8), ^14C-DHA (n = 6), or ^14C-EPA (n = 7) attached to a computer-controlled variable speed pump (PHD 22/2000; Harvard Apparatus, Holliston, MA). […] Each rat received a dose of 76 μCi ^14C-palmitate, 76 μCi ^14C-DHA, or 78 μCi ^14C-EPA. […] The radiotracer infusions continued until rats were euthanized. The brain was excised and cut sagittally. Both hemispheres were stored at −80°C for radioactive and biochemical analyses. Plasma was isolated from whole blood via microcentrifugation at 6,200 rpm (2,000 g) for 5 min and stored at −80°C. Total lipids from one brain hemisphere and from plasma were extracted by the method of Folch, Lees, and Sloane Stanley ([39]). Isolation of various neutral lipid and phospholipid classes from the total lipid extract was previously described by Chen, Liu, and Bazinet ([6]). FA methyl esters and radioactive acyl-CoA analysis were previously described by Chen, Liu, and Bazinet ([6]).

CCCCCCCCCCCCCCC1(C(=O)OC)CO1 (stereo not drawn) [MEP, methyl-2-tetradecylglycidate, reference compound]
fold increase in brain unesterified EPA [1]: 1.3 fold | fold increase in brain unesterified linoleate (18:2n-6) [1]: 1.4 fold | fold increase in brain unesterified palmitate [1]: 2.5 fold | fold increase in brain unesterified α-linolenate (18:3n-3) [1]: 1.5 fold | reduction of radioactivity in brain aqueous fraction ([2]; 14C-DHA-infused rats): 23% | reduction of radioactivity in brain aqueous fraction ([2]; 14C-EPA-infused rats): 54% | reduction of radioactivity in brain aqueous fraction ([2]; 14C-palmitate-infused rats): 74% | increase in radioactivity of PtdSer ([3]; 14C-EPA-infused rats): 49% | increase in radioactivity of PtdIns ([3]; 14C-palmitate-infused rats): 65%
